Laboratory results: patent publication US8288398B2, “Antiproliferative pyrimidyl, fused pyrimidyl and pyrimidyl hydrazones” (Merck Serono SA, priority 2005, dated 2012)

Assays:
[1] = test system: Colon cancer (C26, murine) cells; assay: Tumor cell proliferation assay (ATP-lite), C26; type: cell-based; settings: Mus musculus, 96 h, inhibition of tumor cell growth by 50%, 4 days incubation, ATP-lite readout
Protocol: (§1) Assay 1: Tumor Cell Proliferation Assay:
(§2) Colon cancer (C26, murine), pancreatic cancer (MiaPaCa-2, human) cells were plated in 96-well white plates (Cat. No. 3917, Corning, Inc.) at 2.5×10^3 cells/well and cultured overnight at 37° C. in 5% CO2 in DMEM containing 10% FCS. Inhibitors were serially diluted in 100% DMSO and subsequently added to cells to reach a final concentration of 0.25% DMSO. Cell plates were incubated for an additional 4 days at 37° C. and 5% CO2 and cell proliferation was quantitated using the ATP-lite cell proliferation kit (Cat. No. 6016943, Perkin Elmer).
(§3) The ATPlite kit quantifies the ATP released from lysed cells by the generation of light caused by the reaction of the released ATP with the Luciferase and D-Luciferin contained in the kit. After the 4th day of incubation, the media is removed from the cell plates and replaced with 100 μL of PBS followed by 50 μL of the lysis solution. The plates are then shaken for 5 minutes on an orbital shaker followed by the addition of 50 μL of substrate solution. The plates are shaken for an additional 5 minutes followed by dark adaptation for 10 minutes and finally read on a Victor^3 V plate reader (1 second/well, Cat. No. 1420-041, Perkin Elmer).
(§4) Columns 2-3 show the concentration of compounds required to inhibit the growth of tumor cells by 50% (IC50 in μM).

[2] = test system: pancreatic cancer (MiaPaCa-2, human) cells; assay: Tumor cell proliferation assay (ATP-lite), MiaPaCa-2; type: cell-based; settings: MIA PaCa-2, 96 h; inhibition of tumor cell growth by 50%; MiaPaCa-2 human pancreatic cancer cells; 4 days incubation; ATP-lite readout
Protocol: as §1, §2, §3, §4

Compound | IC50 [1] [µM] | IC50 [2] [µM]
CC(=NNc1nc(C(F)(F)F)nc2ccccc12)c1ccc(C)cc1 [Compound 3, N-(1-p-Tolyl-ethylidene)-N′-(2-trifluoromethyl-quinazolin-4-yl)-hydrazine] | 1 to 15 | 1 to 15
COc1ccc(C(C)=NNc2nc(C)nc3ccccc23)cc1 [Compound 4, N-[1-(4-methoxy-phenyl)-ethylidene]-N′-(2-methyl-quinazolin-4-yl)-hydrazine] | 1 to 15 | 1 to 15
CC(=NNc1nc(C)nc2ccccc12)c1ccc(C)cc1 [Compound 5, N-(2-Methyl-quinazolin-4-yl)-N-(1-p-tolyl-ethylidene)-hydrazine] | 1 to 15 | 1 to 15
CC(=NNc1nc(C)nc2ccccc12)c1cccc(C)c1 [Compound 6, N-(2-methyl-quinazolin-4-yl)-N′-(1-m-tolyl-ethylidene)-hydrazine] | 1 to 15 | 1 to 15
CC(=NNc1cc(-c2ccccc2OC(C)C)nc(C)n1)c1ccc(N(C)C)cc1 [Compound 12, [4-(1-{[6-(2-Isopropoxy-phenyl)-2-methyl-pyrimidin-4-yl]-hydrazono}-ethyl)-phenyl]-dimethylamine] | 1 to 15 | < 1
CC(=NNc1cc(-c2ccccc2)nc(C)n1)c1ccc(NC(N)=S)cc1 [Compound 19, 4-({1-[(2-Methyl-6-phenyl-pyrimidin-4-yl)-hydrazono]-ethyl}-phenyl)-thiourea] | 1 to 15 | 1 to 15
CC(=O)Nc1ccc(C(C)=NNc2cc(-c3ccccc3)nc(C)n2)cc1 [Compound 20, N-(4-{1-[(2-Methyl-6-phenyl-pyrimidin-4-yl)-hydrazono]-ethyl}-phenyl)-acetamide] | 1 to 15 | 1 to 15
CCC(=NNc1cc(-c2ccccc2)nc(C)n1)c1ccc(C)cc1 [Compound 22, N-(2-Methyl-6-phenyl-pyrimidin-4-yl)-N′-[1-p-tolyl-propylidene]-hydrazine] | 1 to 15 | 1 to 15
CC(=NNc1cc(-c2ccccc2)nc(C)n1)c1ccc(Cl)cc1 [Compound 23, N-[1-(4-Chloro-phenyl)ethylidene]-N′-(2-methyl-6-phenyl-pyrimidin-4-yl)-hydrazine] | 1 to 15 | 
COc1ccc(C(C)=NNc2cc(-c3ccccc3)nc(C)n2)cc1 [Compound 24, N-[1-(4-Methoxy-phenyl)-ethylidene]-N′-(2-methyl-6-phenyl-pyrimidin-4-yl)-hydrazine] | < 1 | 
COc1ccccc1-c1cc(NN=C(C)c2ccc(C)cc2)ncn1 [Compound 25, N-[6-(2-Methoxy-phenyl)-pyrimidin-4-yl]-N′-[1-p-tolyl-ethylidene]-hydrazine] | < 1 | < 1
CCc1nc(NN=C(C)c2ccc(C)cc2)cc(-c2ccccc2OC)n1 [Compound 26, N-[2-Ethyl-6-(2-methoxy-phenyl)-pyrimidin-4-yl]-N′-[1-p-tolyl-ethylidene]-hydrazine] | < 1 | < 1
CC(=NNc1cc(-c2ccccc2F)nc(C)n1)c1ccc(C)cc1 [Compound 27, N-[6-(2-Fluoro-phenyl)-2-methyl-pyrimidin-4-yl]-N′-[1-p-tolyl-ethylidene]-hydrazine] | < 1 | < 1
COc1cccc(-c2cc(NN=C(C)c3ccc(C)cc3)nc(C)n2)c1 [Compound 28, N-[6-(3-Methoxy-phenyl)-2-methylpyrimidin-4-yl]-N′-[1-p-tolyl-ethylidene]-hydrazine] |  | 1 to 15
COc1ccccc1-c1cc(NN=C(C)c2ccc(C)cc2)nc(C)n1 [Compound 29, N-[6-(2-Methoxy-phenyl)-2-methylpyrimidin-4-yl]-N′-[1-p-tolyl-ethylidene]-hydrazine] | < 1 | < 1
COc1ccc(-c2cc(NN=C(C)c3ccc(C)cc3)nc(C)n2)cc1 [Compound 30, N-[6-(4-Methoxy-phenyl)-2-methylpyrimidin-4-yl]-N′-[1-p-tolyl-ethylidene]-hydrazine] |  | 1 to 15
CC(=NNc1cc(-c2ccccc2C#N)nc(C)n1)c1ccc(C)cc1 [Compound 31, 2-(2-Methyl-6-{N′-[1-p-tolyl-ethylidene]-hydrazino}-pyrimidin-4-yl)-benzonitrile] | < 1 | < 1
CC(=NNc1cc(-c2ccccc2C)nc(C)n1)c1ccc(C)cc1 [Compound 32, N-[6-(2-methyl-phenyl)-2-methyl-pyrimidin-4-yl]-N′-[1-p-tolyl-ethylidene]-hydrazine] | < 1 | < 1
CC(=NNc1cc(-c2cccnc2)nc(C)n1)c1ccc(C)cc1 [Compound 37, N-(2-Methyl-6-pyridin-3-yl-pyrimidin-4-yl)-N′-[1-p-tolyl-ethylidene]-hydrazine] | 1 to 15 | 
CCc1ccc(C(C)=NNc2cc(-c3ccccc3)nc(C)n2)cc1 [Compound 43, N-[1-(4-Ethyl-phenyl)-ethylidene]-N′-(2-methyl-6-phenyl-pyrimidin-4-yl)-hydrazine] | < 1 | 
CC(=NNc1cc(-c2ccccc2)nc(C)n1)c1ccc(Br)cc1 [Compound 44, N-[1-(4-Bromo-phenyl)-ethylidene]-N′-(2-methyl-6-phenyl-pyrimidin-4-yl)-hydrazine] | 1 to 15 | 
CC(=NNc1cc(-c2ccccc2)nc(C)n1)c1ccc(I)cc1 [Compound 45, N-[1-(4-Iodo-phenyl)-ethylidene]-N′-(2-methyl-6-phenyl-pyrimidin-4-yl)-hydrazine] | 1 to 15 | 
CC(=NNc1cc(-c2ccccc2)nc(C)n1)c1cccc(N)c1 [Compound 46, 3-{1-[(2-Methyl-6-phenyl-pyrimidin-4-yl)-hydrazono]-ethyl}-phenylamine] | 1 to 15 | 
CC(=NNc1cc(-c2ccccc2)nc(C)n1)c1ccc(Cl)c(Cl)c1 [Compound 47, N-[1-(3,4-Dichloro-phenyl)-ethylidene]-N′-(2-methyl-6-phenyl-pyrimidin-4-yl)-hydrazine] | 1 to 15 | 
CC(=NNc1cc(-c2ccccc2)nc(C)n1)c1ccc(O)cc1 [Compound 48, 4-{1-[(2-Methyl-6-phenyl-pyrimidin-4-yl)-hydrazono]-ethyl}-phenol] | 1 to 15 | 

Next, values leading:

IC50 [1] [µM] | IC50 [2] [µM] | Compound
< 1 | < 1 | CC(=NN(C)c1nc(C(F)(F)F)nc2ccccc12)c1cccc(C)c1 [Compound 1]
< 1 | < 1 | CC(=NNc1cc(-c2ccccc2)nc(C)n1)c1ccc(N(C)C)cc1 [Compound 8, Dimethyl-(4-{1-[(2-methyl-6-phenyl-pyrimidin-4-yl)-hydrazono]ethyl}-phenyl)amine]
< 1 | < 1 | COc1ccccc1-c1cc(NN=C(C)c2ccc(N(C)C)cc2)nc(C)n1 [Compound 9]
< 1 | < 1 | CC(=NNc1cc(-c2c(C)noc2C)nc(C)n1)c1ccc(N(C)C)cc1 [Compound 10, (4-(1-{[6-(3,5-dimethyl-isoxazol-4-yl)-2-methyl-pyrimidin-4-yl]-hydrazono}-ethyl)-phenyl]-dimethylamine]
< 1 | < 1 | CC(=NNc1cc(-c2ccccc2OC(F)(F)F)nc(C)n1)c1ccc(N(C)C)cc1 [Compound 11, Dimethyl-[4-(1-{[2-methyl-6-(2-trifluoromethoxy-phenyl)-pyrimidin-4-yl]-hydrazono}-ethyl)-phenyl]-amine]
< 1 | < 1 | CC(=NNc1cc(-c2ccccc2F)nc(C)n1)c1ccc(N(C)C)cc1 [Compound 13, [4-(1-{[6-(2-Fluoro-phenyl)-2-methyl-pyrimidin-4-yl]-hydrazono}-ethyl)-phenyl]-dimethylamine]
< 1 | < 1 | CC(=NNc1cc(-c2ccccc2N)nc(C)n1)c1ccc(N(C)C)cc1 [Compound 14, [4-(1-{[6-(2-amino-phenyl)-2-methyl-pyrimidin-4-yl]-hydrazono}-ethyl)-phenyl]-dimethylamine]
< 1 | < 1 | COc1nc(NN=C(C)c2ccc(N(C)C)cc2)cc(-c2ccccc2)n1 [Compound 15, (4-{1-[(2-Methoxy-6-phenyl-pyrimidin-4-yl)-hydrazono]-ethyl}-phenyl)-dimethylamine]
< 1 | < 1 | CCc1nc(NN=C(C)c2ccc(N(C)C)cc2)cc(-c2ccccc2OC)n1 [Compound 16, [4-(1{[2-Ethyl-6-(2-methoxy-phenyl)-pyrimidin-4-yl]-hydrazono}-ethyl)-phenyl]-dimethylamine]
< 1 | < 1 | COc1ccccc1-c1cc(NN=C(C)c2ccc(N(C)C)cc2)ncn1 [Compound 17, [4-(1-{[6-(2-Methoxy-phenyl)-pyrimidin-4-yl]-hydrazono}-ethyl)-phenyl]dimethyl amine]
< 1 | < 1 | CNc1ccc(C(C)=NNc2cc(-c3ccccc3)nc(C)n2)cc1 [Compound 18, Methyl-(4-{1-[(2-methyl-6-phenyl-pyrimidin-4-yl)-hydrazono]-ethyl}-phenyl)-amine]
< 1 | < 1 | CNc1ccc(C(C)=NNc2nc(C)nc(-c3ccccc3)c2N)cc1 [Compound 21, 2-Methyl-4-{N′-[1-(4-methylamino-phenyl)-ethylidene]-hydrazino}-6-phenyl-pyrimidin-5-ylamine]
